We go through 13 compounds from patent publication US12318452B2, “Degraders of WEE1 kinase” (DANA-FARBER CANCER INSTITUTE, INC., priority 2018, dated 2025).

Where only a bound is given, the exact number is not on record here.

For the first assay, the target named is Wee1 (Homo sapiens, UniProt P30291). Nature of the assay: Cellular degradation of Wee1 by immunoblot, 6-hour treatment of MOLT4 cells. Conditions: MOLT4 cells, immunoblot. The assay is classed as cell-based. More on the design: endogenous in cells; host or cells: MOLT4 (wild type; CRBN-/- as control). How it is done: General Protocol: HT-29, MOLT4 wild type (WT) or CRBN^-/- cells were plated in a 6 well plate and treated for 6 hours with the indicated concentrations of the inventive compounds and control. HT-29 cells were cultured in McCoy's Media supplemented with 10% FBS and 1% Penicillin/Streptomycin. MOLT4 WT and CRBN^-/- cells were cultured in Roswell Park Memorial Institute (RPMI) medium supplemented with 10% FBS and 1% Penicillin/Streptomycin. Mycoplasma testing was performed every month and all lines were negative. Immunoblotting: Cells were washed with phosphate-buffered saline (PBS) and then lysed using radioimmunoprecipitation assay (RIPA) buffer supplemented with protease and phosphatase inhibitor cocktail (Roche) on ice for 15 minutes. The lysates were centrifuged at 14,000 rpm for 15 minutes at 4° C. and protein was quantified by bicinchoninic acid (BCA) assay (PierceTM). Primary antibodies used include: Wee1 ([…]) (Cell Signaling Technology®, 13084S), polo-like kinase 1 (PLK1) (Thermo Fisher Scientific, 37-7000), phosphor-cdc2 (Y15) (10A11) (Cell Signaling Technology®, […]), phospho-histone H3 ([…]) (Cell Signaling Technology®, […]), Ikaros ([…]) (Cell Signaling Technology®, 14859S), Aiolos ([…]) (Cell Signaling Technology®, 15103), casein kinase 1 alpha (Abcam®, 108296), β-actin (Cell Signaling Technology®, 8H10D10). FIG. 2A is an immunoblot showing that compound 13 degraded Wee1 after a 6-hour treatment in MOLT4 cells, and induced the downstream changes expected from Wee1 loss-including a decrease in phosphorylated cyclin-dependent kinase 1 (pCDK1) (Y15) and an increase in pH 3. […] Degradation of Wee1 by compound 13 was rescued in MOLT4 CRBN^-/- cells. MOLT4 WT and CRBN^-/- cells were plated in a 6-well plate at 2.25 million cells per well in 3 mL media (RPMI+10% FBS+1% Penn/Strep). After treatment with the indicated concentrations of candidate compounds, cells were incubated for 6 hours at 37° C. 5% CO2. To harvest, the cells were washed 1× with cold PBS, then collected by centrifugation. Cell pellets were lysed in RIPA buffer with protease and phosphatase inhibitors (Roche). Lysates were clarified by centrifugation, and protein concentrations were normalized using a BCA assay (Thermo ScientificTM). The samples were diluted with 4×LDS+10% β-mercaptoethanol, and were boiled at 95° C. for 5 minutes. Proteins of interest were then assessed by western blotting. […] The experimental protocol was the same as in Example 28.
Wee1, sequence (P30291 whole entry): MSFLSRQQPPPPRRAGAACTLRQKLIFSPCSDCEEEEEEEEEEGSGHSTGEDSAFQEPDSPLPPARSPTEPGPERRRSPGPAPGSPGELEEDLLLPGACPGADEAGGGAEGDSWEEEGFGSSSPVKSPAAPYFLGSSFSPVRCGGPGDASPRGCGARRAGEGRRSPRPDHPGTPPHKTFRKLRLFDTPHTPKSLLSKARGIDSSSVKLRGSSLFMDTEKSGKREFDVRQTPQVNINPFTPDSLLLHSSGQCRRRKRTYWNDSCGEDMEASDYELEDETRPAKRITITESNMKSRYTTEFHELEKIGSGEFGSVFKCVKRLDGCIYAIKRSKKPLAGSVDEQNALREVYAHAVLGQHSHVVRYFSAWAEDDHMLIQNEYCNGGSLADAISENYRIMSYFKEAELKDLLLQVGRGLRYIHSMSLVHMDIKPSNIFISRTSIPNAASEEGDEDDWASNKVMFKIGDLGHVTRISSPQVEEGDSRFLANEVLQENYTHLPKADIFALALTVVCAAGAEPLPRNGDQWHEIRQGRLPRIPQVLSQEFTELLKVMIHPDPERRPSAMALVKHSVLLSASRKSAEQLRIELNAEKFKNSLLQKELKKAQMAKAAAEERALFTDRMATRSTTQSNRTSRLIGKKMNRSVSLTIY
With `C=CCn1c(=O)c2cnc(Nc3ccc(N4CCN(CCCCCC(=O)N[C@H](C(=O)N5C[C@H](O)C[C@H]5C(=O)N[C@@H](C)c5ccc(-c6scnc6C)cc5)C(C)(C)C)CC4)cc3)nc2n1-c1cccc(C(C)(C)O)n1` [Compound 21, tert-butyl (2S,4R)-1-((S)-2-(6-(4-(4-((2-allyl-1-(6-(2-hydroxypropan-2-yl)pyridin-2-yl)-3-oxo-2,3-dihydro-1H-pyrazolo[3,4-d]pyrimidin-6-yl)amino)phenyl)piperazin-1-yl)hexanamido)-3,3-dimethylbutanoyl)-4-hydroxy-N—((S)-1-(4-(4-methylthiazol-5-yl)phenyl)ethyl)pyrrolidine-2-carboxamide], the Wee1 degradation result is “Degradation of Wee1 was also observed”.

The same assay, now with this note: MOLT-4, 1 μM, MOLT4 cells, approximated by immunoblot, read-out: Extent of Degradation of Wee1.
For the compound `C=CCn1c(=O)c2cnc(Nc3ccc(N(C)CCCCNc4cccc5c4C(=O)N(C4CCC(=O)NC4=O)C5=O)cc3)nc2n1-c1cccc(C(C)(C)O)n1` (centres unmarked) [Compound 15, 4-((4-((4-((2-Allyl-1-(6-(2-hydroxypropan-2-yl)pyridin-2-yl)-3-oxo-2,3-dihydro-1H-pyrazolo[3,4-d]pyrimidin-6-yl)amino)phenyl)(methyl)amino)butyl)amino)-2-(2,6-dioxopiperidin-3-yl)isoindoline-1,3-dione], the percent Wee1 degradation at 1 µM was 25 to 50%.
For `C=CCn1c(=O)c2cnc(Nc3ccc(N4CCN(C(=O)CCOCCOCCNc5cccc6c5CN(C5CCC(=O)NC5=O)C6=O)CC4)cc3)nc2n1-c1cccc(C(C)(C)O)n1` (centres unmarked) [Compound 4, 3-(4-((2-(2-(3-(4-(4-((2-allyl-1-(6-(2-hydroxypropan-2-yl)pyridin-2-yl)-3-oxo-2,3-dihydro-1H-pyrazolo[3,4-d]pyrimidin-6-yl)amino)phenyl)piperazin-1-yl)-3-oxopropoxy)ethoxy)ethyl)amino)-1-oxoisoindolin-2-yl)piperidine-2,6-dione], the percent Wee1 degradation at 1 µM was 25 to 50%.
On the same count and under the same terms, the same measure for `C=CCn1c(=O)c2cnc(Nc3ccc(N4CCN(C(=O)CCOCCOCCNc5cccc6c5C(=O)N(C5CCC(=O)NC5=O)C6=O)CC4)cc3)nc2n1-c1cccc(C(C)(C)O)n1` (centres unmarked) [Compound 3, 4-((2-(2-(3-(4-(4-((2-allyl-1-(6-(2-hydroxypropan-2-yl)pyridin-2-yl)-3-oxo-2,3-dihydro-1H-pyrazolo[3,4-d]pyrimidin-6-yl)amino)phenyl)piperazin-1-yl)-3-oxopropoxy)ethoxy)ethyl)amino)-2-(2,6-dioxopiperidin-3-yl)isoindoline-1,3-dione]: over 50%.
Same read-out and setting: in the case of `C=CCn1c(=O)c2cnc(Nc3ccc(N(C)CCCCNc4ccc5c(c4)C(=O)N(C4CCC(=O)NC4=O)C5=O)cc3)nc2n1-c1cccc(C(C)(C)O)n1` (centres unmarked) [Compound 16, 5-((4-((4-((2-Allyl-1-(6-(2-hydroxypropan-2-yl)pyridin-2-yl)-3-oxo-2,3-dihydro-1H-pyrazolo[3,4-d]pyrimidin-6-yl)amino)phenyl)(methyl)amino)butyl)amino)-2-(2,6-dioxopiperidin-3-yl)isoindoline-1,3-dione] it was over 50%; in that of `C=CCn1c(=O)c2cnc(Nc3ccc(N4CCN(C(=O)CCCCCCCCOc5cccc6c5C(=O)N(C5CCC(=O)NC5=O)C6=O)CC4)cc3)nc2n1-c1cccc(C(C)(C)O)n1` (centres unmarked) [Compound 6, 4-((9-(4-(4-((2-allyl-1-(6-(2-hydroxypropan-2-yl)pyridin-2-yl)-3-oxo-2,3-dihydro-1H-pyrazolo[3,4-d]pyrimidin-6-yl)amino)phenyl)piperazin-1-yl)-9-oxononyl)oxy)-2-(2,6-dioxopiperidin-3-yl)isoindoline-1,3-dione], 25 to 50%.
Still for that read-out and setting: in the case of `C=CCn1c(=O)c2cnc(Nc3ccc(N4CCN(C(=O)CCOCCOCCOCCN5CCN(Cc6ccc(COc7cccc8c7CN([C@H]7CCC(=O)NC7=O)C8=O)cc6)CC5)CC4)cc3)nc2n1-c1cccc(C(C)(C)O)n1` [Compound 9, (S)-3-(4-((4-((4-(2-(2-(2-(3-(4-(4-((2-allyl-1-(6-(2-hydroxypropan-2-yl)pyridin-2-yl)-3-oxo-2,3-dihydro-1H-pyrazolo[3,4-d]pyrimidin-6-yl)amino)phenyl)piperazin-1-yl)-3-oxopropoxy)ethoxy)ethoxy)ethyl)piperazin-1-yl)methyl)benzyl)oxy)-1-oxoisoindolin-2-yl)piperidine-2,6-dione] it was over 50%; in that of `C=CCn1c(=O)c2cnc(Nc3ccc(N4CCN(CCCNc5cccc6c5C(=O)N(C5CCC(=O)NC5=O)C6=O)CC4)cc3)nc2n1-c1cccc(OC)n1` (centres unmarked) [Compound 17, 4-((3-(4-(4-((2-Allyl-1-(6-methoxypyridin-2-yl)-3-oxo-2,3-dihydro-1H-pyrazolo[3,4-d]pyrimidin-6-yl)amino)phenyl)piperazin-1-yl)propyl)amino)-2-(2,6-dioxopiperidin-3-yl)isoindoline-1,3-dione], over 50%.
For the compound `C=CCn1c(=O)c2cnc(Nc3ccc(N4CCN(CCCNc5cccc6c5C(=O)N(C5CCC(=O)NC5=O)C6=O)CC4)cc3)nc2n1-c1cccc(C(F)(F)F)n1` (centres unmarked) [Compound 18, 4-((3-(4-(4-((2-Allyl-3-oxo-1-(6-(trifluoromethyl)pyridin-2-yl)-2,3-dihydro-1H-pyrazolo[3,4-d]pyrimidin-6-yl)amino)phenyl)piperazin-1-yl)propyl)amino)-2-(2,6-dioxopiperidin-3-yl)isoindoline-1,3-dione], the percent Wee1 degradation at 1 µM is over 50%.
The same measure, in the same setting: in the case of `C=CCn1c(=O)c2cnc(Nc3ccc(N4CCN(C(=O)CCOCCOCCOCCOCCNc5cccc6c5C(=O)N(C5CCC(=O)NC5=O)C6=O)CC4)cc3)nc2n1-c1cccc(C(C)(C)O)n1` (centres unmarked) [Compound 1, 4-((15-(4-(4-((2-allyl-1-(6-(2-hydroxypropan-2-yl)pyridin-2-yl)-3-oxo-2,3-dihydro-1H-pyrazolo[3,4-d]pyrimidin-6-yl)amino)phenyl)piperazin-1-yl)-15-oxo-3,6,9,12-tetraoxapentadecyl)amino)-2-(2,6-dioxopiperidin-3-yl)isoindoline-1,3-dione] it was under 25%; in that of `C=CCn1c(=O)c2cnc(Nc3ccc(N4CCN(CCCCCC(=O)N[C@H](C(=O)N5C[C@H](O)C[C@H]5C(=O)N[C@@H](C)c5ccc(-c6scnc6C)cc5)C(C)(C)C)CC4)cc3)nc2n1-c1cccc(C(C)(C)O)n1` [Compound 21, tert-butyl (2S,4R)-1-((S)-2-(6-(4-(4-((2-allyl-1-(6-(2-hydroxypropan-2-yl)pyridin-2-yl)-3-oxo-2,3-dihydro-1H-pyrazolo[3,4-d]pyrimidin-6-yl)amino)phenyl)piperazin-1-yl)hexanamido)-3,3-dimethylbutanoyl)-4-hydroxy-N—((S)-1-(4-(4-methylthiazol-5-yl)phenyl)ethyl)pyrrolidine-2-carboxamide], under 25%; in that of `C=CCn1c(=O)c2cnc(Nc3ccc(N4CCN(CCCNC(=O)CCOCCOCCOCCN5CCN(Cc6ccc(COc7cccc8c7CN([C@H]7CCC(=O)NC7=O)C8=O)cc6)CC5)CC4)cc3)nc2n1-c1cccc(C(C)(C)O)n1` [Compound 10, (S)—N-(3-(4-(4-((2-Allyl-1-(6-(2-hydroxypropan-2-yl)pyridin-2-yl)-3-oxo-2,3-dihydro-1H-pyrazolo[3,4-d]pyrimidin-6-yl)amino)phenyl)piperazin-1-yl)propyl)-3-(2-(2-(2-(4-(4-(((2-(2,6-dioxopiperidin-3-yl)-1-oxoisoindolin-4-yl)oxy)methyl)benzyl)piperazin-1-yl)ethoxy)ethoxy)ethoxy)propanamide], 25 to 50%.
On the same count and under the same terms, the same measure for `C=CCn1c(=O)c2cnc(Nc3ccc(N4CCN(C(=O)CCOCCNc5cccc6c5C(=O)N(C5CCC(=O)NC5=O)C6=O)CC4)cc3)nc2n1-c1cccc(C(C)(C)O)n1` (centres unmarked) [Compound 5, 4-((2-(3-(4-(4-((2-allyl-1-(6-(2-hydroxypropan-2-yl)pyridin-2-yl)-3-oxo-2,3-dihydro-1H-pyrazolo[3,4-d]pyrimidin-6-yl)amino)phenyl)piperazin-1-yl)-3-oxopropoxy)ethyl)amino)-2-(2,6-dioxopiperidin-3-yl)isoindoline-1,3-dione]: over 50%; for `C=CCn1c(=O)c2cnc(Nc3ccc(N4CCN(CCCNC(=O)CCOCCOCCOCCOCCNc5cccc6c5C(=O)N(C5CCC(=O)NC5=O)C6=O)CC4)cc3)nc2n1-c1cccc(C(C)(C)O)n1` (centres unmarked) [Compound 8, N-(3-(4-(4-((2-allyl-1-(6-(2-hydroxypropan-2-yl)pyridin-2-yl)-3-oxo-2,3-dihydro-1H-pyrazolo[3,4-d]pyrimidin-6-yl)amino)phenyl)piperazin-1-yl)propyl)-1-((2-(2,6-dioxopiperidin-3-yl)-1,3-dioxoisoindolin-4-yl)amino)-3,6,9,12-tetraoxapentadecan-15-amide]: over 50%.
